Measured values from patent US7776865B2, “Substituted pyrazolo[1,5-a]pyrimidines as protein kinase inhibitors” (Schering Corporation, priority 2005, dated 2010).
Read-outs that look alike come from different tables or passages of the source.

Legend:
recombinant His-CHK1 = target: T1, recombinant His-CHK1 (Homo sapiens, UniProt O14757); test: CHK1 SPA Assay; assay type: biochemical; conditions: CDC25C biotinylated peptide substrate, 1 uM ATP
T1 construct: His-CHK1, In House Lot P976, MW ˜30 KDa, stored at −80° C; fused on or other part: His tag
T1 sequence (O14757 1-265 limits assumed): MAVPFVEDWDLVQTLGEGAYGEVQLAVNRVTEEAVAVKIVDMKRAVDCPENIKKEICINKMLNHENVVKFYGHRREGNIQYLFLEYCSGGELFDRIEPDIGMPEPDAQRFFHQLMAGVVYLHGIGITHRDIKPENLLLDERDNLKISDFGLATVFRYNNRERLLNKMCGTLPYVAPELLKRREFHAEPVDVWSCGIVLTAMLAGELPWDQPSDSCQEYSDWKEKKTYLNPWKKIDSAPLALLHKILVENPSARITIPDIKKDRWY

CDK2/cyclin A = target: T2, CDK2/cyclin A (Homo sapiens, UniProt P24941); test: CDK2 Assay (in vitro kinase assay, cyclin A-dependent); assay type: biochemical
T2 construct: made in house; host or cells: SF9 cells (recombinant baculovirus, pFASTBAC)

[1] = SPA, biotinylated Histone H1 peptide substrate, read-out: CDK2/cyclin A IC50
[2] = read-out: CDK2/cyclin A IC50, SPA, biotinylated Histone H1 peptide substrate

Row | Structure (SMILES) | IC50 (recombinant His-CHK1; CHK1 IC50 [nM]) [nM] | IC50 (recombinant His-CHK1; read-out: CHK1 IC50) [nM] | also measured
1 | Cn1cc(-c2cnn3c(N)c(-c4ccncc4)c(C4CCCNC4)nc23)cn1 (centres unmarked) | 229 |  | IC50 (CDK2/cyclin A; [1]): 11300 nM
2 | Cn1cc(-c2cnn3c(N)c(-c4ccccc4)c(C4CCCNC4)nc23)cn1 (centres unmarked) | 563 |  | 
3 | Cn1cc(-c2cnn3c(N)c(-c4ccsc4)c(C4CCCNC4)nc23)cn1 (centres unmarked) | 160 |  | IC50 (CDK2/cyclin A; [1]): 2150 nM
4 | Cn1cc(-c2cnn3c(N)c(-c4ccoc4)c(C4CCCNC4)nc23)cn1 (centres unmarked) | 340 |  | 
5 | Cn1cc(-c2cnn3c(N)c(-c4cccnc4)c(C4CCCNC4)nc23)cn1 (centres unmarked) | 507 |  | IC50 (CDK2/cyclin A; [1]): 1480 nM
6 | Cn1cc(-c2cnn3c(N)c(C4CC4)c(C4CCCNC4)nc23)cn1 (centres unmarked) | 17 |  | IC50 (CDK2/cyclin A; [1]): 167 nM
7 | C=C(C)c1c(C2CCCNC2)nc2c(-c3cnn(C)c3)cnn2c1N (centres unmarked) |  | 67 | IC50 (CDK2/cyclin A): 201 nM
8 | Cn1cc(-c2cnn3c(N)c(-c4cnn(CCO)c4)c(C4CCCNC4)nc23)cn1 (centres unmarked) |  | 114 | IC50 (CDK2/cyclin A): 11700 nM
9 | Cn1cc(-c2c(C3CCCNC3)nc3c(-c4cnn(C)c4)cnn3c2N)cn1 (centres unmarked) | 102 |  | IC50 (CDK2/cyclin A; [1]): 224000 nM
10 | COC/C=C/c1c(C2CCCNC2)nc2c(-c3cnn(C)c3)cnn2c1N (centres unmarked) | 52 |  | 
11 | Cn1cc(-c2cnn3c(N)c(-c4cccs4)c(C4CCCNC4)nc23)cn1 (centres unmarked) | 86 |  | 
12 | CCc1c(C2CCCNC2)nc2c(-c3cnn(C)c3)cnn2c1N (centres unmarked) | 31 |  | IC50 (CDK2/cyclin A; [1]): 334 nM
13 | Cn1cc(-c2cnn3c(N)c(C#N)c(C4CCCNC4)nc23)cn1 (centres unmarked) | 102 |  | IC50 (CDK2/cyclin A; [1]): 1720 nM
14 | CC(=O)c1c(C2CCCNC2)nc2c(-c3cnn(C)c3)cnn2c1N (centres unmarked) |  | 8 | IC50 (CDK2/cyclin A): 33 nM
15 | CC(=NO)c1c(C2CCCNC2)nc2c(-c3cnn(C)c3)cnn2c1N (centres unmarked) |  | 59 | 
16 | CCC(=O)c1c(C2CCCNC2)nc2c(-c3cnn(C)c3)cnn2c1N (centres unmarked) |  | 12 | IC50 (CDK2/cyclin A): 38 nM
17 | Cn1cc(-c2cnn3c(N)c(C(=O)Cc4ccccc4)c(C4CCCNC4)nc23)cn1 (centres unmarked) |  | 47 | IC50 (CDK2/cyclin A): 103 nM
18 | CC#Cc1c(C2CCCNC2)nc2c(-c3cnn(C)c3)cnn2c1N (centres unmarked) | 44 |  | IC50 (CDK2/cyclin A; [1]): 1290 nM
19 | Cc1nc2c(Br)cnn2c(N)c1CC(N)=O |  | 4750 | IC50 (CDK2/cyclin A; [2]): 1190 nM
20 | CNC(=O)Cc1c(C)nc2c(Br)cnn2c1N |  | > 50000 | IC50 (CDK2/cyclin A; [2]): 41300 nM
21 | Cc1nc2c(Br)cnn2c(N)c1CCO |  | 29100 | IC50 (CDK2/cyclin A; [2]): 69 nM
22 | Cc1nc2c(Br)cnn2c(N)c1CCC(N)=O |  | > 50000 | IC50 (CDK2/cyclin A; [2]): 882 nM
23 | Nc1c(-c2ccccc2)c(N2CC[C@H](N)C2)nc2c(Br)cnn12 |  | 22600 | melting point: 167 to 170 °C
24 | CCc1c(N2CC[C@H](N)C2)nc2c(Br)cnn2c1N |  | 845 | IC50 (CDK2/cyclin A; [2]): 852 nM
25 | Cc1c(N2CC[C@H](N)C2)nc2c(Br)cnn2c1N |  | 1580 | IC50 (CDK2/cyclin A; [2]): 754 nM
26 | CC(O)c1c(C2CCCNC2)nc2c(-c3cnn(C)c3)cnn2c1N (single isomer, unassigned) [drawing 212] |  | 148 | 
27 | CC(O)c1c(C2CCCNC2)nc2c(-c3cnn(C)c3)cnn2c1N (single isomer, unassigned) [drawing 213] |  | 18 | 
